Measurements taken from patent publication US11422091B2, “Turn-on near infrared fluorescent probes for imaging lysosomal ROS in live cells at subcellular resolution” (University of Massachusetts, priority 2015, dated 2022).

Tests used:
[1] = Fluorescent responses of RTMI to various ROS in PBS
Procedure: Fresh solutions of L-ascorbic acid (50 mM), hydrogen peroxide (100 mM), tert-butyl hydrogen peroxide (TBHP, 100 mM), 3-morpholinosydnonimine (SIN-1, 5 mM), glutathione reduced form (GSH, 10 mM) and glutathione oxidized form (GSSG, 10 mM) were prepared with distilled water. […]
The hydroxyl and butoxyl radicals were generated in situ by reacting hydrogen peroxide or TBHP with Fe^2+. Fresh 10 mM Fe^2+ was made in 0.1 M HCl solution using ferrous ammonium sulfate [Fe(NH4)2(SO4)2.6H2O]. A 10 μM RTMI solution, in PBS, containing 10 μM Fe^2+ was made and either hydrogen peroxide or TBHP was added to this solution to generate a 100 μM concentration.
Fluorescence spectra were recorded on a Perkin-Elmer LS55 luminescence spectrometer at 293 K. The excitation wavelengths and filters used were indicated in the figures. The pH measurements were carried out on a Corning pH meter equipped with a Sigma-Adrich micro combination electrode calibrated with standard buffer solution.
Fluorescent responses of RTMI (100 μM) to various ROS were monitored in PBS, containing 1% methanol. Various reactive oxygen species were added to the 100 μM RTMI solutions, at a 5:1 molar ratio to RTMI, and the fluorescence intensity was recorded after 5 min of incubation at 25° C. Superoxide (O2.^−) was added as solid KO2. Stock solution solutions of hydrogen peroxide, tert-butyl hydrogen peroxide (TBHP), hypochlorite, 3-morpholinosydnonimine (SIN-1), glutathione (GSH) and 1,4-hydroquinone were made and then added to the RTMI solution, to generate a 500 μM final concentration. 3-(aminopropyl)-1-hydroxy-3-isopropyl-2-oxo-1-triazene (NOC-5, 1 mM) was made as a 10 mM sodium hydroxide solution and then added to the RTMI solution, to generate a 500 μM final concentration. The hydroxyl and butoxyl radicals were generated in situ by reacting hydrogen peroxide or TBHP with Fe^2+. A 100 μM RTMI solution, in PBS, containing 500 μM Fe^2 was made and either hydrogen peroxide or TBHP was added to this solution to generate a 500 μM concentration.

BAEC cells = test: Detection of ROS in live BAEC cells by fluorescence microscopy; type: cell-based, bovine; conditions: HO., H2O2, KO2, TBO, TBHP, peroxynitrite or ox-LDL, RTMI 10 μM
Procedure: In one embodiment, the RTMI may be used to analyze ROS species within living systems. The RTMI sensor solution was applied to live cells and analyzed under a fluorescence microscope. Each of the various ROS (HO., H2O2, KO2, TBO, TBHP, peroxynitrite) or ROS inducer (ox-LDL) that were present combined with the RTMI sensor were incubated with BAEC cells.
The sensor RTMI was dissolved in DMF at a concentration of 10 mM. 1 μL of the DMF solution was added to cell medium without fetal bovine serum. Cell culture medium was removed from the cells in the culture dish and replaced with the fresh medium containing the sensor.
Oxidized low density lipoprotein (Ox-LDL, a stimulation factor for ROS production in cells) was dissolved in water solution and the final concentration in cell media was 20 μg/mL.
Commercial H2O2 (30% wt, density of 1.1 g/ml, MW 34.02 g/mol) was diluted with deionized water to make a fresh solution of 100 mM. 1 μL of the fresh solution was added to cell media to generate a final concentration of 100 μM.
SIN1 (a peroxyitrite donor) was dissolved in deionized water to the concentration of 10 mM; 10 μL of this solution added to cell media to generate a final concentration of 100 μM.
Fe^2+ was freshly made from ferrous ammonium sulfate (MW 392.15 g/mol) dissolved in 0.1 M HCl (DI water solution) to generate a fresh solution of 100 mM. […]

[2] = test system: Bovine Aortic Endothelial Cells (BAEC); test: Co-localization with Mito Tracker Green and Lyso Tracker Blue, confocal imaging in BAEC; type: cell-based; conditions: BAEC preloaded with TBHP (100 μM) 30 min, RTMI (10 μM) 30 min
Procedure: Confocal fluorescence imaging studies were performed with a Zeiss LSM 710 laser scanning microscope.

[3] = Photo stability of the sensor; type: physicochemical
[4] = RTMI 100 μM in PBS, 1% methanol, 500 μM, 5 min, 25° C.

In the case of `CCCN1c2ccccc2C(C)(C)C1/C=C/C1=C2Oc3cc(O)ccc3C=C2CCC1` (stereo not drawn) [RTMI], the “fluorescence response to TBHP” value [1, 4] is reported as “turn-on”, the “fluorescence response to hydrogen peroxide” value [1, 4] is reported as “turn-on” and the “fluorescence response to peroxynitrite (generated by SIH 1)” value [1, 4] is reported as “turn-on”. For the same compound, the “fluorescence response to superoxide (O2.-)” value ([1]; RTMI 100 μM in PBS, 1% methanol, solid KO2, 5:1 molar ratio, 5 min, 25° C.) was “turn-on”, the “fluorescence response to butoxyl radical (TBO)” value ([1]; RTMI 100 μM in PBS, generated in situ from TBHP 500 μM and Fe2+ 500 μM) was “turn-on” and the “fluorescence response to hydroxyl radical” value ([1]; RTMI 100 μM in PBS, generated in situ from hydrogen peroxide 500 μM and Fe2+ 500 μM) was “turn-on”. The “fluorescence response to Fe2+” value ([1]; beyond baseline fluorescence) was “does not respond”, the “fluorescence response to GSH” value ([1]; beyond baseline fluorescence) was “does not respond” and the “fluorescence response to GSSG” value ([1]; beyond baseline fluorescence) was “does not respond”. The “fluorescence response to nitrite” value ([1]; beyond baseline fluorescence) was “does not respond”, the “fluorescence response to nitric oxide radical” value ([1]; beyond baseline fluorescence, NOC-5) was “does not respond” and the “fluorescence peak upon reacting with ROS” value ([1]; in physiological buffer, near IR region) was 705 nm. The “fluorescence emission in the near IR region of cells treated with ROS or ROS inducers, compared to the control” value (BAEC cells) was “strongly fluorescence emission signals”, the “subcellular location of ROS detected by the sensor” value [2] was “in lysosomes” and the photo stability [3] was “very good photo stability”.
